The text below walks through data of patent publication US20260285875A1, “INHIBITORS OF PARG” (858 Therapeutics, Inc., priority 2023, published 2026).

Where only a bound is given, the exact number is not on record here.

This assay deals with T1, cellular PARG (Homo sapiens, UniProt Q86W56).
T1 construct: endogenous in cells; host or cells: HeLa
T1 sequence (Q86W56 whole entry): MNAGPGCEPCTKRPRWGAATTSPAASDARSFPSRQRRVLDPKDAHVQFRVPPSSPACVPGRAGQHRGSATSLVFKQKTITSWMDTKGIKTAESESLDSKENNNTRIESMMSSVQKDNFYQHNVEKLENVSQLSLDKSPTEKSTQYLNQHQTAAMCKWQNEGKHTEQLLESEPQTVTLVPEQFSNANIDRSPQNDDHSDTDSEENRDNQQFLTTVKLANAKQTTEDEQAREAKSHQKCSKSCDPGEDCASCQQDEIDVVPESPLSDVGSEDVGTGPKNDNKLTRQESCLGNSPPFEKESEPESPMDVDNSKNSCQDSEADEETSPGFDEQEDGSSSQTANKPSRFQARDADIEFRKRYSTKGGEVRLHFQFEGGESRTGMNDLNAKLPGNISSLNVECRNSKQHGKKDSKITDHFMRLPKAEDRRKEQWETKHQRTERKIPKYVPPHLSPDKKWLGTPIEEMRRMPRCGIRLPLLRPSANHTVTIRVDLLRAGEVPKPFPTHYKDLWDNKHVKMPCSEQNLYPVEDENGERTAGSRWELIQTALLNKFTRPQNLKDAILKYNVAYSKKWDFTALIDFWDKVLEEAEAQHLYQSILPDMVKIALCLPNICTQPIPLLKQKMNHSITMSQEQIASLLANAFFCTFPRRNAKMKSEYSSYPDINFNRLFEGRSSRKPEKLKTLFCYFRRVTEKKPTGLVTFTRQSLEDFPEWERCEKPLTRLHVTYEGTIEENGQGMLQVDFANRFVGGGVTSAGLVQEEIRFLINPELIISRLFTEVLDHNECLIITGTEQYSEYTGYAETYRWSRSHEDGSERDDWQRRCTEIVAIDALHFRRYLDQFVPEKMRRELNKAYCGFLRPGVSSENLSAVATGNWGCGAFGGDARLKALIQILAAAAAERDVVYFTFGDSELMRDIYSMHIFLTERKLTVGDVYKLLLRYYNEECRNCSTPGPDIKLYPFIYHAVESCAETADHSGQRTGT
Briefly: Nuclear PAR accumulation assay (immunofluorescence high-content imaging, MMS-treated HeLa cells). The following applies: 1 hour compound then MMS 50 μg/mL for an additional hour. Format: cell-based. In short, it runs like this: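 HeLa cells pretreated with compound for 1 h at 37° C, then given 50 μg/mL MMS for another hour. After methanol fixation, PAR was immunostained with DAPI nuclear counterstain; per-nucleus intensity and percent PAR-positive cells were imaged at 20× (≥1,000 cells/well). IC50 from four-parameter logistic fit.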
A word on the IC50: it is the concentration that inhibits the measured activity by half. The low end stands for greater potency in that assay, the high end for weaker potency in that assay. `CCN1C(=O)c2cc(S(=O)(=O)NC3(C)CC3)ccc2N2C1=NC[C@H]2C#Cc1c2ncccc2nn1C` [Example 208, (R)-4-ethyl-1-((2-methyl-2H-pyrazolo[4,3-b]pyridin-3-yl)ethynyl)-N-(1-methylcyclopropyl)-5-oxo-1,2,4,5-tetrahydroimidazo[1,2-a]quinazoline-7-sulfonamide] showed an IC50 of less than 100 nM. For `CN1C(=O)c2cc(S(=O)(=O)NC3(C)CC3)ccc2N2C1=NCC2C#Cc1cnc2cc(C(F)(F)F)cnn12` (stereo not drawn) [Example 209, 4-methyl-N-(1-methylcyclopropyl)-5-oxo-1-((7-(trifluoromethyl)imidazo[1,2-b]pyridazin-3-yl)ethynyl)-1,2,4,5-tetrahydroimidazo[1,2-a]quinazoline-7-sulfonamide] the value was less than 100 nM.

`Cn1cc(CN2C(=O)c3cc(S(=O)(=O)NC4(C)CC4)ccc3N3C2=NC[C@H]3C#Cc2ccnn2C(F)F)cn1` [Example 210, (R)-1-((1-(difluoromethyl)-1H-pyrazol-5-yl)ethynyl)-4-((1-methyl-1H-pyrazol-4-yl)methyl)-N-(1-methylcyclopropyl)-5-oxo-1,2,4,5-tetrahydroimidazo[1,2-a]quinazoline-7-sulfonamide]: the IC50 is less than 100 nM. `[2H]C([2H])([2H])n1nccc1C#C[C@@H]1CN=C2N(Cc3cnn(C)c3)C(=O)c3cc(S(=O)(=O)NC4(C)CC4)ccc3N21` [Example 211, (R)-4-((1-methyl-1H-pyrazol-4-yl)methyl)-1-((1-(methyl-d3)-1H-pyrazol-5-yl)ethynyl)-N-(1-methylcyclopropyl)-5-oxo-1,2,4,5-tetrahydroimidazo[1,2-a]quinazoline-7-sulfonamide] registered an IC50 of less than 100 nM. Take `[2H]C([2H])(c1cnn(C)c1)N1C(=O)c2cc(S(=O)(=O)NC3(C)CC3)c(F)cc2N2C1=N[C@H]1CCC[C@H]12` [Example 212, (7aS,10aR)-2-fluoro-6-((1-methyl-1H-pyrazol-4-yl)methyl-d2)-N-(1-methylcyclopropyl)-5-oxo-6,7a,8,9,10,10a-hexahydro-5H-cyclopenta[4,5]imidazo[1,2-a]quinazoline-3-sulfonamide]: the IC50 is less than 100 nM. For `[2H]C([2H])(c1cnn(C)c1)N1C(=O)c2cc(S(=O)(=O)NC3(C)CC3)c(OC)cc2N2C1=N[C@H]1CCC[C@H]12` [Example 213, (7aS,10aR)-2-methoxy-6-((1-methyl-1H-pyrazol-4-yl)methyl-d2)-N-(1-methylcyclopropyl)-5-oxo-6,7a,8,9,10,1Oa-hexahydro-5H-cyclopenta[4,5]imidazo[1,2-a]quinazoline-3-sulfonamide] the value was 100 to 1000 nM; for `[2H]C([2H])(c1cnn(C)c1)N1C(=O)c2cc(S(=O)(=O)NC3(C)CC3)c(N(C)C)cc2N2C1=N[C@H]1CCC[C@H]12` [Example 214, (7aS,10aR)-2-(dimethylamino)-6-((1-methyl-1H-pyrazol-4-yl)methyl-d2)-N-(1-methylcyclopropyl)-5-oxo-6,7a,8,9,10,10a-hexahydro-5H-cyclopenta[4,5]imidazo[1,2-a]quinazoline-3-sulfonamide], 1000 to 10000 nM; for `CN1C(=O)c2cc(S(=O)(=O)NC3(C)CC3)c(F)cc2N2C1=NCC2C#Cc1cnc2cccnn12` (stereo not drawn) [Example 215, 8-fluoro-1-(imidazo[1,2-b]pyridazin-3-ylethynyl)-4-methyl-N-(1-methylcyclopropyl)-5-oxo-1,2,4,5-tetrahydroimidazo[1,2-a]quinazoline-7-sulfonamide], less than 100 nM. Compound `Cc1cc(C#C[C@@H]2CN=C3N(C)C(=O)c4cc(S(=O)(=O)NC5(C)CC5)ccc4N32)ccn1` [Example 216, (R)-4-methyl-N-(1-methylcyclopropyl)-1-((2-methylpyridin-4-yl)ethynyl)-5-oxo-1,2,4,5-tetrahydroimidazo[1,2-a]quinazoline-7-sulfonamide] yielded an IC50 of less than 100 nM. For `Cn1cc(CN2C(=O)c3cc(S(=O)(=O)NC4(C)CC4)ccc3N3C2=NC[C@H]3C#Cc2c(F)cnn2C)cn1` [Example 217, (R)-1-((4-fluoro-1-methyl-1H-pyrazol-5-yl)ethynyl)-4-((1-methyl-1H-pyrazol-4-yl)methyl)-N-(1-methylcyclopropyl)-5-oxo-1,2,4,5-tetrahydroimidazo[1,2-a]quinazoline-7-sulfonamide] the value was less than 100 nM.

In the case of `Cc1nn(C)cc1C#C[C@@H]1CN=C2N(Cc3cnn(C)c3)C(=O)c3cc(S(=O)(=O)NC4(C)CC4)ccc3N21` [Example 218, (R)-1-((1,3-dimethyl-1H-pyrazol-4-yl)ethynyl)-4-((1-methyl-1H-pyrazol-4-yl)methyl)-N-(1-methylcyclopropyl)-5-oxo-1,2,4,5-tetrahydroimidazo[1,2-a]quinazoline-7-sulfonamide], the IC50 is less than 100 nM.

Compound `C[C@@H]1CON=C2N(Cc3cnn(C)c3)C(=O)c3cc(S(=O)(=O)NC4(C)CC4)ccc3N21` [Example 219, (R)-1-methyl-5-((1-methyl-1H-pyrazol-4-yl)methyl)-N-(1-methylcyclopropyl)-6-oxo-1,2,5,6-tetrahydro-[1,2,4]oxadiazino[4,3-a]quinazoline-8-sulfonamide] showed an IC50 of less than 100 nM. The result for `C[C@H]1CON=C2N(Cc3cnn(C)c3)C(=O)c3cc(S(=O)(=O)NC4(C)CC4)ccc3N21` [Example 220, (S)-1-methyl-5-((1-methyl-1H-pyrazol-4-yl)methyl)-N-(1-methylcyclopropyl)-6-oxo-1,2,5,6-tetrahydro-[1,2,4]oxadiazino[4,3-a]quinazoline-8-sulfonamide] reads 100 to 1000 nM; that for `Cn1cc(CN2C(=O)c3cc(S(=O)(=O)NC4(C)CC4)ccc3N3C2=NC[C@H]3C#Cc2cnc3cccnn23)cn1` [Example 221, (R)-1-(imidazo[1,2-b]pyridazin-3-ylethynyl)-4-((1-methyl-1H-pyrazol-4-yl)methyl)-N-(1-methylcyclopropyl)-5-oxo-1,2,4,5-tetrahydroimidazo[1,2-a]quinazoline-7-sulfonamide], less than 100 nM; that for `[2H]C([2H])(c1cnn(C)c1)N1C(=O)c2cc(S(=O)(=O)NC3(C)CC3)c(NC)cc2N2C1=N[C@H]1CCC[C@H]12` [Example 222, (7aS,10aR)-6-((1-methyl-1H-pyrazol-4-yl)methyl-d2)-2-(methylamino)-N-(1-methylcyclopropyl)-5-oxo-6,7a,8,9,10,10a-hexahydro-5H-cyclopenta[4,5]imidazo[1,2-a]quinazoline-3-sulfonamide], less than 100 nM. For the compound `C[C@@H]1CN=C2N(Cc3cccnc3C#N)C(=O)c3cc(S(=O)(=O)NC4(C)CC4)c(F)cc3N21` [Example 223, (R)-4-((2-cyanopyridin-3-yl)methyl)-8-fluoro-1-methyl-N-(1-methylcyclopropyl)-5-oxo-1,2,4,5-tetrahydroimidazo[1,2-a]quinazoline-7-sulfonamide], the IC50 was 100 to 1000 nM. For `CN1C(=O)c2cc(S(=O)(=O)NC3(C)CC3)ccc2N2C1=NCC2C#Cc1ccnc(F)c1` (stereo not drawn) [Example 224, 1-((2-fluoropyridin-4-yl)ethynyl)-4-methyl-N-(1-methylcyclopropyl)-5-oxo-1,2,4,5-tetrahydroimidazo[1,2-a]quinazoline-7-sulfonamide] the value was less than 100 nM; for `Cc1cccc(C#CC2CN=C3N(C)C(=O)c4cc(S(=O)(=O)NC5(C)CC5)ccc4N32)n1` (stereo not drawn) [Example 225, 4-methyl-N-(1-methylcyclopropyl)-1-((6-methylpyridin-2-yl)ethynyl)-5-oxo-1,2,4,5-tetrahydroimidazo[1,2-a]quinazoline-7-sulfonamide], less than 100 nM; for `CN1C(=O)c2cc(S(=O)(=O)NC3(C)CC3)ccc2N2C1=NCC2C#Cc1ccnc(C(F)(F)F)c1` (stereo not drawn) [Example 226, 4-methyl-N-(1-methylcyclopropyl)-5-oxo-1-((2-(trifluoromethyl)pyridin-4-yl)ethynyl)-1,2,4,5-tetrahydroimidazo[1,2-a]quinazoline-7-sulfonamide], 100 to 1000 nM. The result for `COc1cc(C#CC2CN=C3N(C)C(=O)c4cc(S(=O)(=O)NC5(C)CC5)ccc4N32)ccn1` (stereo not drawn) [Example 227, 1-((2-methoxypyridin-4-yl)ethynyl)-4-methyl-N-(1-methylcyclopropyl)-5-oxo-1,2,4,5-tetrahydroimidazo[1,2-a]quinazoline-7-sulfonamide] reads less than 100 nM; that for `CCN1C(=O)c2cc(S(=O)(=O)NC3(C)CC3)ccc2N2C1=NC[C@H]2C#Cc1cc(C2CC2)nn1C` [Example 228, (R)-1-((3-cyclopropyl-1-methyl-1H-pyrazol-5-yl)ethynyl)-4-ethyl-N-(1-methylcyclopropyl)-5-oxo-1,2,4,5-tetrahydroimidazo[1,2-a]quinazoline-7-sulfonamide], less than 100 nM. For `CN1CCN(C2(C#C[C@@H]3CN=C4N(C)C(=O)c5cc(S(=O)(=O)NC6(C)CC6)ccc5N43)CC2)CC1` [Example 229, (R)-4-methyl-N-(1-methylcyclopropyl)-1-((1-(4-methylpiperazin-1-yl)cyclopropyl)ethynyl)-5-oxo-1,2,4,5-tetrahydroimidazo[1,2-a]quinazoline-7-sulfonamide] the value was 100 to 1000 nM; for `C[C@@H]1CN=C2N(Cc3cn(C)nc3C3CC3)C(=O)c3cc(S(=O)(=O)NC4(C)CC4)ccc3N21` [Example 230, (R)-4-((3-cyclopropyl-1-methyl-1H-pyrazol-4-yl)methyl)-1-methyl-N-(1-methylcyclopropyl)-5-oxo-1,2,4,5-tetrahydroimidazo[1,2-a]quinazoline-7-sulfonamide], less than 100 nM; for `[2H]C([2H])(c1cnn(C)c1)N1C(=O)c2cc(S(=O)(=O)NC3(C)CC3)ccc2N2C1=NC[C@H]2C#Cc1cc(C)nn1C` [Example 231, (R)-1-((1,3-dimethyl-1H-pyrazol-5-yl)ethynyl)-4-((1-methyl-1H-pyrazol-4-yl)methyl-d2)-N-(1-methylcyclopropyl)-5-oxo-1,2,4,5-tetrahydroimidazo[1,2-a]quinazoline-7-sulfonamide], less than 100 nM.
